Experimental data: patent US7943606B2, “Compositions and methods to control abnormal cell growth” (CanCure Laboratories, LLC, priority 2005, dated 2011)
Structures can show the parent of a compound that is named as a salt.

Legend:
[1] = system: MEL-28 cells; assay: Viability of MEL-28 melanoma cells; format: cell-based, human; conditions: for inhibition at 100 µM: Homo sapiens, SK-MEL-28, read-out: Decrease in cell number (maximal decrease = 100%), MEL-28
Procedure: (§1) To quantify cell death, around the time when significant and characteristic morphological changes took place, cells were pulse-labeled for 10 minutes with [^3H]thymidine to measure DNA activity as described elsewhere [Tomono, M. and Kiss, Z. (1995), “Ethanol enhances the stimulatory effects of insulin and insulin-like growth factor-I on DNA synthesis in NIH 3T3 fibroblasts,” Biochem. Biophys. Res. Commun. 208, 63-67]. Also, cells were collected as suspensions using trypsin, an established method in cell biology, followed by re-plating of cells in fresh tissue culture medium. If no viable cells were obtained after one week in culture, it meant that the cells at the time of re-plating were dead. Survival values obtained with untreated cells were considered 100%. For the determination of relative number of viable cells after treatments, in most cases the MTT assay was used. This calorimetric assay is based on the ability of living cells, but not dead cells, to reduce 3-(4,5-dimethyl thiazol-2-yl)-2,5-diphenyltetrazolium bromide [Carmichael, J, De Graff, W. G., Gazdar, A. F., Minna, J. D. and Mitchell, J. B. (1987), “Evaluation of tetrazolium-based semi-automated calorimetric assay: Assessment of chemosensitivity testing,” Cancer Res. 47, 936-942]. For this assay, cells were plated in 96-well plates, and the MTT assay was performed both in untreated and treated cell cultures. The MTT assay also was performed at the start of treatments to allow assessment of proliferation rates in the control and treated cell cultures.
About 60% confluent cultures of MEL-28 cells, cultured in 12-well plates in MEM medium supplemented with 10% FBS, were either untreated (FIG. 2A), or were treated with 100 μM CCDTHT (CCompound3) for 72 hours (FIG. 2B).
The NIH 3T3 (normal) mouse fibroblast, A431 human epidermoid adenocarcinoma, and MCF-7 human breast cancer cells were cultured in DMEM medium containing 10% FBS. The MEL-28 human melanoma cells were cultured in MEM medium containing 10% FBS. The HT-29 human colon adenocarcinoma cells were cultured in McCoy's 5a medium containing 10% FBS. The A549 human lung carcinoma cells were maintained in Ham's F12K medium containing 10% FBS. Cells were seeded into 96-well plates and treated at ˜70-90% confluency. Two hours before treatments the medium was changed for fresh 10% serum medium, and then the cells were incubated for 72 hours in the presence of 0-200 μM of CCompound1 (●) or CCompound3 (CCDTHT) (▴), as indicated. The MTT assay was used to determine cell viability after treatments. The values, shown in FIGS. 5A-5F and expressed as percent decrease in viability compared to the untreated control cells, are the mean±std. dev. of 8 incubations in one experiment.
(§2) NIH3T3, T47D, A-431, HT-29, and MEL-28 cells were cultured as indicated earlier. CaOV-3 human ovarian cancer cells were cultured in DMEM containing 10% FBS. ZR-75-1 human estrogen receptor-positive breast cancer cells were maintained in RPMI 1640 medium supplemented with 10% FBS. HTB-157 human fetal fibroblasts, MEL-24 human malignant melanoma cells, Hep G2 human hepatoblastoma cells, and CaCO-2 human colon adenocarcinoma cells were maintained in Eagles's MEM containing 10% FBS. MB-231 human estrogen receptor-negative breast cancer cells were maintained in Leibovitz's L-15 medium supplemented with 10% FBS. Cells were seeded into 96-well plates and treated at ˜70-90% confluency. Two hours prior to treatments the medium was changed for fresh 10% serum medium, and then the cells were incubated for 10 days in the absence (□) or presence of 50 μM CCDTHT ? or 100 μM CCDTHT (▪). The medium was changed and the cells were re-treated on days 3 and 6. The MTT assay was used to determine cell viability on day 10. The data, shown in FIG. 6, are the mean±std. dev. of 8 incubations in one experiment.

[2] = system: ZR-75-1 cells; assay: Viability of ZR-75-1 breast cancer cells (MTT assay); format: cell-based, human; conditions: for inhibition at 100 µM: Homo sapiens, ZR-75-1, 72 hours, read-out: Decrease in cell number (maximal decrease = 100%), ZR-75-1
Procedure: as §1
as §2, with “experiment. (The experiment was repeated twice with similar results).” for “experiment.”
(§3) NIH 3T3, MEL-28, MEL-24, CaOV-3, ZR-75-1, and T47D cells were cultured as described above. The OVCAR human ovarian cancer cells were cultured in DMEM containing 10% FBS. Cells were seeded into 96-well plates and used at ˜60-80% confluency. Two hours before treatments the medium was changed for fresh 10% serum medium, and then the cells were incubated for 72 hours in the absence or presence of 100 μM of each of CC compounds as listed in TABLE 3. The inhibitory effects of CC compounds on cell proliferation are expressed as percent decrease compared to untreated cell cultures (the greater the number, the greater the inhibitory effect of the CC compound). […] Also, for the treatment of ovarian cancer and breast cancer, CCDTHT seems to be the best choice (although in this experiment CCompounds21-26 were not tested).

[3] = system: MEL-24 cells; assay: Viability of MEL-24 melanoma cells (MTT assay); format: cell-based; conditions: Homo sapiens; for inhibition at 100 µM: 72 hours, read-out: Decrease in cell number (maximal decrease = 100%), MEL-24
Procedure: as §1
as §2, with “experiment. (The experiment was repeated twice with similar results).” for “experiment.”
as §3

SMILES | reduction of cell numbers, MEL-28, CCDTHT versus CCompound1 ([1]; 0-200 μM, 72 hours, MTT) | reversibility: proliferation in fresh medium after treatment, MEL-28 ([1]; 50 μM 48 hours, then 96 hours without CCDTHT) | DNA synthesis (radiolabeled thymidine), MEL-28 ([1]; 100 μM, 72 hours) | morphology / cell death, MEL-28 ([1]; 100 μM, 72 hours, 12-well plates) | decrease in the number of viable cells versus 0.5 mM HC-3, MEL-28 ([1]; 100 μM, 72 hours, MTT) | sensitivity to the inhibitory actions, MEL-28 ([1]; 50 and 100 μM, 10 days, MTT) | inhibition at 100 µM ([1]; 100 μM, 72 hours) [%] | sensitivity to the inhibitory actions, ZR-75-1 ([2]; 50 and 100 μM, 10 days, MTT) | inhibition at 100 µM [2] [%] | inhibition at 100 µM [3] [%] | cytotoxicity at 100 µM ([3]; 240 h, 10 days, MTT, read-out: reduction in the number of viable cells, MEL-24) [%]
CC[N+](C)(CC)CCOCc1ccc2sc3ccccc3c(=O)c2c1.[I-] [CCDTHT, N,N-diethyl-N-methyl-2-[(9-oxo-9H-thioxanthen-2-yl)methoxy]-ethanaminium iodide] | clearly more effective than CCompound1 | not sufficient to suppress proliferation | did not synthesize detectable amount of DNA | practically all cells rounded up | much greater decreases in the number of viable cells compared to 0.5 mM HC-3 | very sensitive | 60 | very sensitive | 74 | 15 | ≤ 50
CC[N+](CC)(CC)CCCOCc1ccc2sc3ccccc3c(=O)c2c1 [CCcompound9, N,N,N-Triethyl-3-[(9-oxo-9H-thioxanthen-2-yl)methoxy]-propane-1-aminium iodide] | – | – | – | – | – | – | 14 | – | 70 | 4 | –
CC[N+](C)(CC)CCCOCc1ccc2sc3ccccc3c(=O)c2c1 [CCcompound10, N,N-Diethyl-N-methyl-3-[(9-oxo-9H-thioxanthen-2-yl)methoxy]-propane-1-aminium iodide] | – | – | – | – | – | – | 11 | – | 65 | 15 | –
CC[N+](C)(C)CCCOCc1ccc2sc3ccccc3c(=O)c2c1 [CCcompound11, N,N-Dimethyl-N-ethyl-3-[(9-oxo-9H-thioxanthen-2-yl)methoxy]-propane-1-aminium iodide] | – | – | – | – | – | – | 94 | – | 75 | 20 | –
CC[NH+](CC)CCCOCc1ccc2sc3ccccc3c(=O)c2c1 [CCcompound12, 2-{[3-(Diethylamino)propoxy]meth-yl}-9H-thioxanthen-9-one hydrochloride] | – | – | – | – | – | – | 71 | – | 17 | 73 | –
C[N+](C)(CCO)Cc1ccc2sc3ccccc3c(=O)c2c1 [CCcompound13, 2-Hydroxy-N,N-dimethyl-N-[(9-oxo-9H-thioxanthen-2-yl)methyl]-ethanaminium bromide] | – | – | – | – | – | – | 11 | – | 48 | 12 | –
CC[N+](CC)(CCO)Cc1ccc2sc3ccccc3c(=O)c2c1 [CCcompound14, 2-Hydroxy-N,N-Diethyl-N-[(9-oxo-9H-thioxanthen-2-yl)methyl]-ethanaminium bromide] | – | – | – | – | – | – | 90 | – | 53 | 21 | –
C[N+](C)(CCCO)Cc1ccc2sc3ccccc3c(=O)c2c1 [CCcompound15, 3-Hydroxy-N,N-dimethyl-N-[(9-oxo-9H-thioxanthen-2-yl)methyl]propane-1-aminium bromide] | – | – | – | – | – | – | 19 | – | 41 | 0 | –
CC[N+](CC)(CCCO)Cc1ccc2sc3ccccc3c(=O)c2c1 [CCcompound16, 3-Hydroxy-N,N-diethyl-N-[(9-oxo-9H-thioxanthen-2-yl)methyl]-propane-1-aminium bromide] | – | – | – | – | – | – | 10 | – | 39 | 0 | –
